Test system: human platelet aggregation
Experiment: Human platelet aggregation inhibitory test (ADP-induced, platelet rich plasma)
Type: cell-based
Details: human PRP, 5 μM ADP, compound added 1 minute before ADP, turbidity (aggregometer), read-out: Platelet Aggregation Inhibitory Effect IC50
Experimental: Blood collected from human median cubital vein was centrifuged at 800 rpm for 10 minutes. Upper portion of the resultant was collected as platelet rich plasma (PRP). PRP was dispensed to small test tubes, and 5 μM of ADP was added thereto to induce platelet aggregation. The degree of platelet aggregation was measured as a change in turbidity using an aggregometer (Hematracer 1, Nikobioscience). Each compound was added 1 minute before ADP addition, and calculation was carried out using as an IC50 value a concentration that inhibits aggregation by 50%.

Row | Structure (SMILES) | IC50 [nM]
1 | O=C(O)COc1cccc2c1OCCN2CCN(C(=O)c1ccccc1)c1ccc(Cl)cc1 [Example 1-14] | 13
2 | Cc1ccc(N(CCN2CCOc3c(OCC(=O)O)cccc32)C(=O)c2ccccc2)cc1 [Example 1-16] | 5.3
3 | Cc1ccc(C(=O)N(CCN2CCOc3c(OCC(=O)O)cccc32)c2ccc(C)cc2)cc1 [Example 1-28] | 5.9
4 | CSc1ccc(N(CCN2CCOc3c(OCC(=O)O)cccc32)C(=O)c2ccccc2)cc1 [Example 1-40] | 14
5 | O=C(O)COc1cccc2c1OCCN2CCN(C(=O)c1ccccc1)c1ccc(Cl)cc1Cl [Example 1-49] | 18
6 | O=C(O)COc1cccc2c1OCCN2CCN(C(=O)c1ccccc1)c1ccc(Cl)cc1F [Example 1-63] | 8.8
7 | Cc1ccc(C(=O)N(CCN2CCOc3c(OCC(=O)O)cccc32)c2ccc(Br)cc2)cc1 [Example 2-4] | 27
8 | O=C(O)COc1cccc2c1OCCN2CCN(C(=O)C1=CCCCC1)c1ccc(Br)cc1 [Example 2-27] | 55

Test system: platelet aggregation
Experiment: Monkey platelet aggregation inhibitory test after oral administration (ex vivo, ADP-induced, PRP)
Type: in vivo
Details: male crab-eating monkeys, blood before and 30, 60, 120, 180 min after administration, 10 μM ADP, FIG. 1
Experimental: Male crab-eating monkeys (4 to 6 kg) were retained in monkey chairs. After 30 minutes of acclimatization, the compound of Example 1-13 was orally administered to the monkeys using catheters (16 Fr).
Blood was collected via saphenous veins before, and 30, 60, 120 and 180 minutes after administration of drug solutions using a syringe that had previously contained a 3.8% sodium citrate solution in a volume that was one-tenth of that of collected blood.
The collected blood was centrifuged at 1000 rpm for 10 minutes. Upper portions of the resultants were collected as platelet rich plasma (PRP). PRP was apportioned into small test tubes, and 10 μM of ADP was added thereto to induce platelet aggregation. The degree of platelet aggregation was measured as a change in turbidity using an aggregometer (Hematracer 1, Nikobioscience).

Row | Structure (SMILES) | inhibitory effect of platelet aggregation after oral administration
9 | O=C(O)COc1cccc2c1OCCN2CCN(C(=O)c1ccccc1)c1ccc(Br)cc1 [Example 1-13] | strong inhibitory effect of platelet aggregation

Reference: patent US20060040931A1, “Benzomorpholine derivatives” (Toray Industries, Inc., priority 2002, published 2006)
